Where a name gives a salt, the structure may show the parent alone.
How the values were obtained:
[1] = Milling studies (FRITSCH Pulverisette 14 Rotor Speed Mill); assay type: physicochemical
Method: The milling process was performed by the FRITSCH Pulverisette 14 Rotor Speed Mill supplied with circular sieve stainless steel with trapezoidal 0.080 mm diameter openings. The samples were passed through the mill twice at 20.000 rpm motor speed. The sample is assayed for title and degradation products by TLC and HPLC, physical state by DSC, water content by TGA, particle size distribution by Mercury Instrusion Porosimetry. The mi 11ed compounds are formulated in capsules and tablets at very low dose level (0.5 mg) by direct mixing and direct compression manufacturing method, respectively.

[2] = Moisture sorption/desorption studies (hygrostat, storage at different temperatures and relative humidity); assay type: physicochemical; parameters: water content (Table VI): unit not given here; settings: hydrochloride; for water content (Table VI): 37° C.
Method: The determination of the sorption isotherms was carried out in a hygrostat.
At suitable intervals, the sample was weighed by means of a sample balance. The atmosphere in the hygrostat and therefore around the sample of compound 1a (1b) and 2a (2b) was conditioned and kept by a saturated solutions of a suitable salt:
Na Cl saturated solution 75.3% RH/25° C. 74.8% RH/37° C.
KNO3 saturated solution 93.7% RH/25° C. 90.0% RH/37° C.
At the end of the experiment, after completing the hysteresis, that is the adsorption--desorption cycle of humidity, the compound was assayed for the title and degradation products by TLC and HPLC, the physical state by DSC and water content by TGA.

**Q.** With `CCn1c(=O)n(C(=O)N[C@H]2C[C@H]3CC[C@@H](C2)N3C)c2ccccc21` [Compound 1b, endo-3-ethyl-2,3-dihydro-N-(8-methyl-8-azabicyclo-[3.2.1]oct-3-yl)-2-oxo-1H-benzimidazole-1-carboxamide hydrochloride, reference compound] as the compound, how does the humidity content ([1]; after milling, hydrochloride) read?
**A.** The humidity content was 2.32%.

**Q.** And the humidity content ([1]; before milling)?
**A.** The humidity content was 0.87%.

**Q.** What about the “water content (Table VI)” value ([2]; 49.2% RH, 2 h) of the same compound?
**A.** The value was 2.18.

**Q.** What about the “water content (Table VI)” value ([2]; 49.2% RH, 4 h) of the same compound?
**A.** The value was 2.58.

**Q.** What about the “water content (Table VI)” value ([2]; 49.2% RH, 6 h) of the same compound?
**A.** Its value is 3.01.

**Q.** What about the “water content (Table VI)” value ([2]; 49.2% RH, 1 d) of the same compound?
**A.** Its value is 4.07.

**Q.** What about the “water content (Table VI)” value ([2]; 49.2% RH, 4 d) of the same compound?
**A.** Its value is 4.81.

**Q.** And the “water content (Table VI)” value ([2]; 49.2% RH, 10 d)?
**A.** Its value is 4.82.

**Q.** And the “water content (Table VI)” value ([2]; 49.2% RH, 30 d)?
**A.** The value was 4.81.

**Q.** And the “water content (Table VI)” value ([2]; 49.2% RH, time 0)?
**A.** Its value is 1.13.

**Q.** What about the “water content (Table VI)” value ([2]; 74.8% RH, 2 h) of the same compound?
**A.** The value was 4.99.

**Q.** What about the “water content (Table VI)” value ([2]; 74.8% RH, 4 h) of the same compound?
**A.** The value was 4.93.

**Q.** What about the “water content (Table VI)” value ([2]; 74.8% RH, 6 h) of the same compound?
**A.** The value was 4.97.

**Q.** What about the “water content (Table VI)” value ([2]; 74.8% RH, 1 d) of the same compound?
**A.** Its value is 4.90.

**Q.** What about the “water content (Table VI)” value ([2]; 74.8% RH, 4 d) of the same compound?
**A.** Its value is 4.92.

**Q.** And the “water content (Table VI)” value ([2]; 74.8% RH, 10 d)?
**A.** The value was 4.85.

**Q.** What about the “water content (Table VI)” value ([2]; 74.8% RH, 30 d) of the same compound?
**A.** The value was 4.81.

**Q.** And the “water content (Table VI)” value ([2]; 74.8% RH, time 0)?
**A.** Its value is 1.13.

**Q.** What about the moisture absorption ([2]; different temperatures and relative humidity, in words) of the same compound?
**A.** Its moisture absorption is “marked tendency to moisture absorption”.

— patent US5468758A, “Crystalline forms of endo-2,3-dihydro-N-(8-methyl)-8-azabicyclo[3.2.1]oct-3-yl)-2-oxo-1H-benz imidazole-1-carboxamides” (Boehringer Ingelheim Italia S.p.A., priority 1992, dated 1995)
